The source of these data is patent US20080039816A1, “Carbohydrate-Encapsulated Quantum Dots for Bilogical Imaging” (The Government of the United States of America as …, priority 2004, published 2008).

This data set is described as follows: Storage stability of thiol ligands (dimerization to disulfide). It is filed as physicochemical. The method, then: In a second, alternative approach for hydrolysis, the debenzylidinated thioester (300 mg) was dissolved in methanol (5 ml). […] Air was bubbled through the solution and the solution was stirred at room temperature and allowed to react for 24 hours. […] The Thomsen-Friedenreich-disulfide of formula VII (130 mg) was then dissolved in distilled water (1 ml) and degassed with argon for 20 minutes. Dithiothreitol (130 mg) was added and the solution allowed to react for 20 minutes. The excess dithiothreitol was then removed by several extractions with ethyl acetate. The residue was then purified by reverse phase flash chromatography on a C-18 column with an aqueous solution of methanol (10%-40% (v/v)) to yield the Thomsen-Friedenreich-thiol of formula VI.
After 30 min, the reaction was carefully neutralized with strongly acidic ion-exchange resin Amberlite®-120, filtered and concentrated. Purification was accomplished on a Strata® SI-1 silica gel cartridge eluting with 20% MeOH in CH2Cl2.

`CC(=O)NC1C(OCCCCCS)OC(CO)C(O)C1OC1OC(CO)C(O)C(O)C1O` (centres unmarked) [formula 3]: the “stability upon standing at room temperature” value (room temperature) is “oxidizes to the Thomsen-Friedenreich-disulfide of formula VII”. Besides, under “stored at −20° C. (under argon)”, the “storage stability (dimerization)” value is recorded as “without significant dimerization for weeks”.
